Literature values, collected in US20080146534A1, “PHARMACEUTICAL COMPOSITION FOR REDUCING THE RISKS ASSOCIATED WITH CARDIOVASCULAR AND CEREBROVASCULAR DISEASES” (priority 2006, published 2008).

Conditions: at clinical doses

SMILES: O=C1CCc2cc(OCCCCc3nnnn3C3CCCCC3)ccc2N1 [Cilostazol, 6-[4-(1-cyclohexyl-1H-tetrazol-5-yl)butoxy]-3,4-dihydro-2(1H)-quinolinon]
- increase in heart rate: about 7 beats/minute
- ventricular premature beat (VPB) rate (small increase from 1/hour): 4 h⁻¹
